Data published in ChEMBL document CHEMBL4138197, “Design, synthesis and pharmacological evaluation of N-(5-chloro-2,4-dihydroxybenzoyl)-(R)-N-arylmethyl-1,2,3,4-tetrahydro-3-isoquinolinecarboxamides as potent Hsp90 inhibitors” (Eur J Med Chem, 2018).
Calls of active or inactive are those of the source. No cut-off for these calls is given here.

Experiments:
[1] = biological target: Heat shock protein HSP 90-alpha (Homo sapiens) (UniProt P07900); experiment: Inhibition of HSP90alpha in human MDA-MB-453 cells assessed as upregulation of HSP70 levels by Western blot analysis; type: cell-based
[2] = biological target: T1, Heat shock protein HSP90 (Homo sapiens) (UniProt P07900+P08238); experiment: Inhibition of HSP90 in human MDA-MB-453 cells assessed as downmodulation of IKKbeta expression at 0.25 uM up to 48 hrs by Western blot analysis; type: cell-based
HeLa = experiment: Antiproliferative activity against human HeLa cells by SRB assay; type: functional, cell-based
SW480 = experiment: Antiproliferative activity against human SW480 cells by SRB assay; type: functional, cell-based
MDA-MB-453 [3] = experiment: Induction of apoptosis in human MDA-MB-453 cells assessed as late apoptotic cells at 0.25 uM after 48 hrs by Annexin V-FITC/propidium iodide-staining based flow cytometry (reference value: 3.40%); type: functional
NCI-H1299 = experiment: Antiproliferative activity against human NCI-H1299 cells by SRB assay; type: functional, cell-based
[4] = biological target: Heat shock protein HSP 90-alpha (Homo sapiens) (UniProt P07900); experiment: Inhibition of HSP90alpha in human MDA-MB-453 cells assessed as down-regulation of EGFR levels by Western blot analysis; type: cell-based
MDA-MB-453 [5] = experiment: Induction of apoptosis in human MDA-MB-453 cells assessed downregulation of bcl-xl expression at 0.25 uM at 48 hrs by Western blot analysis; type: functional, cell-based
MDA-MB-453 [6] = experiment: Induction of apoptosis in human MDA-MB-453 cells assessed downregulation of bcl2 expression at 0.25 uM at 48 hrs by Western blot analysis; type: functional, cell-based
PC-3 = experiment: Antiproliferative activity against human PC3 cells by SRB assay; type: functional, cell-based
[7] = biological target: Heat shock protein HSP 90-alpha (Homo sapiens) (UniProt P07900); experiment: Inhibition of HSP90alpha in human MDA-MB-453 cells assessed as down-regulation of CDK4 levels by Western blot analysis; type: cell-based
[8] = biological target: T2, MAP kinase p38 (Homo sapiens) (UniProt O15264+Q15759+Q16539+P53778); experiment: Induction of p38 in human MDA-MB-453 cells assessed as upregulation of Hsp27 Ser82 phosphorylation at Ser82 at 0.25 uM after 2 hrs by Western blot analysis; type: cell-based
SK-OV-3 = experiment: Antiproliferative activity against human SKOV3 cells by SRB assay; type: functional, cell-based
MDA-MB-453 [9] = experiment: Effect on Bax protein expression in human MDA-MB-453 cells at 0.25 uM incubated for 6 to 48 hrs by Western blot analysis; type: functional, cell-based
MDA-MB-453 [10] = experiment: Induction of apoptosis in human MDA-MB-453 cells assessed as necrotic cells at 0.25 uM after 48 hrs by Annexin V-FITC/propidium iodide-staining based flow cytometry (reference value: 0.01%); type: functional
[11] = biological target: NF-kappa-B essential modulator (Homo sapiens) (UniProt Q9Y6K9); experiment: Induction of IKKgamma association to hsp27 in human MDA-MB-453 cells at 0.25 uM after 6 hrs by immunoprecipitation and Western analysis; type: cell-based
MDA-MB-453 [12] = experiment: Induction of apoptosis in human MDA-MB-453 cells after 48 hrs by Annexin V-FITC/propidium iodide-staining based flow cytometry; type: functional, cell-based
MDA-MB-453 [13] = experiment: Induction of apoptosis in human MDA-MB-453 cells assessed as increase in cleaved caspase7 activity at 0.25 uM up to 48 hrs by Western blot analysis; type: functional, cell-based
MDA-MB-231 = experiment: Antiproliferative activity against human MDA-MB-231 cells by SRB assay; type: functional, cell-based
[14] = biological target: Heat shock protein HSP 90-alpha (Homo sapiens) (UniProt P07900); experiment: Inhibition of HSP90alpha in human MDA-MB-453 cells assessed as down-regulation of HER2 levels by Western blot analysis; type: cell-based
[15] = biological target: T1, Heat shock protein HSP90 (Homo sapiens); experiment: Inhibition of HSP90 in human MDA-MB-453 cells assessed as downmodulation of IKKalpha expression at 0.25 uM up to 48 hrs by Western blot analysis; type: cell-based
HCT-116 = experiment: Antiproliferative activity against human HCT116 cells by SRB assay; type: functional, cell-based
MCF7 = experiment: Antiproliferative activity against human MCF7 cells by SRB assay; type: functional, cell-based
MDA-MB-453 [16] = experiment: Induction of apoptosis in human MDA-MB-453 cells assessed as increase in cleaved caspase3 activity at 0.25 uM up to 48 hrs by Western blot analysis; type: functional, cell-based
MDA-MB-453 [17] = experiment: Induction of apoptosis in human MDA-MB-453 cells assessed as early apoptotic cells at 1 uM after 48 hrs by Annexin V-FITC/propidium iodide-staining based flow cytometry (reference value: 1.65%); type: functional
[18] = biological target: T3, Inhibitor of nuclear factor kappa-B kinase subunit alpha (Homo sapiens) (UniProt O15111); experiment: Induction of IKKalpha association to hsp27 in human MDA-MB-453 cells at 0.25 uM after 6 hrs by immunoprecipitation and Western analysis; type: cell-based
T3 sequence (whole entry): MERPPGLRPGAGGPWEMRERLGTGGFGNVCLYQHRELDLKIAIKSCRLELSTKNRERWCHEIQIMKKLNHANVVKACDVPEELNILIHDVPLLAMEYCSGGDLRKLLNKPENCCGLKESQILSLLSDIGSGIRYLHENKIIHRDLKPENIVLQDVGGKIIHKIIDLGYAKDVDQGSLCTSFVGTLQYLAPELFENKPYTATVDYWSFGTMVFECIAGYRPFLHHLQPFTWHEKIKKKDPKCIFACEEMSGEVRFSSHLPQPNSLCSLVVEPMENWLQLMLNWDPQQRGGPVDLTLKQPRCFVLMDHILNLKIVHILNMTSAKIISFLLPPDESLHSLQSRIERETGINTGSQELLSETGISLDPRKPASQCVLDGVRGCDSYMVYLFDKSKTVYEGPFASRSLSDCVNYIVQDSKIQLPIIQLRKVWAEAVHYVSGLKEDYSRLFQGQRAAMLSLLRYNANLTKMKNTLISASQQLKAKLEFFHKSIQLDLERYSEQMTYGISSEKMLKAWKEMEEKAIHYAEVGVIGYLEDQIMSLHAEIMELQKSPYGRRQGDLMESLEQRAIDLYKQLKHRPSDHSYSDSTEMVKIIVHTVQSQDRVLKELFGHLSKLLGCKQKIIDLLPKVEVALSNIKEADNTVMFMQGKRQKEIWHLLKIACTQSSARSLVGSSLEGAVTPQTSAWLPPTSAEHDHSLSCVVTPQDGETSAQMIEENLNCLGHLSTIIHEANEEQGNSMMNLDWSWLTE

MDA-MB-453 [19] = experiment: Induction of apoptosis in human MDA-MB-453 cells assessed as increase in cleaved PARP activity at 0.25 uM up to 48 hrs by Western blot analysis; type: functional, cell-based
[20] = biological target: T2, MAP kinase p38 (Homo sapiens); experiment: Induction of p38 phosphorylation in human MDA-MB-453 cells at 0.25 uM after 48 hrs by Western blot analysis; type: cell-based
U-251 = experiment: Antiproliferative activity against human U251 cells by SRB assay; type: functional, cell-based
[21] = biological target: T2, MAP kinase p38 (Homo sapiens); experiment: Induction of p38 in human MDA-MB-453 cells assessed as upregulation of Hsp27 phosphorylation at Ser82 at 0.25 uM after 2 hrs in presence of […] by Western blot analysis; type: cell-based
[22] = biological target: T1, Heat shock protein HSP90 (Homo sapiens); experiment: Inhibition of HSP90 in human MDA-MB-453 cells assessed as suppression of TNFalpha-induced NFkappaB activation by measuring reduction in IKBalpha degradation at 0.25 uM after 24 hrs by Western blot analysis; type: cell-based

Chain of NF-kappa-B essential modulator (Homo sapiens) (Q9Y6K9 whole entry): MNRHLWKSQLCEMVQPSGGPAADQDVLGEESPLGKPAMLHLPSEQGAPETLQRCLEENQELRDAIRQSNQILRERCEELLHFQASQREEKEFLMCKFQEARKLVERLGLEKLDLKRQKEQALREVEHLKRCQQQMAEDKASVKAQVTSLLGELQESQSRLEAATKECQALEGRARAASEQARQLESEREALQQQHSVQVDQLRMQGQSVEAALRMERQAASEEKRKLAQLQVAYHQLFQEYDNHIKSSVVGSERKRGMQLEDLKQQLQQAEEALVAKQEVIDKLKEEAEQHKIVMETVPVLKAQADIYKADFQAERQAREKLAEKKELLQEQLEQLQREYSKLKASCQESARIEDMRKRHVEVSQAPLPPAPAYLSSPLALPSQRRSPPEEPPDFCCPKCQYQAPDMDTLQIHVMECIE

inhibition [1]: Dose-dependent effect
inhibition [2]: Active
inhibition [4]: Dose-dependent effect
inhibition [7]: Dose-dependent effect
Activity [8]: Active
Activity [11]: Active
inhibition [14]: Dose-dependent effect
inhibition [15]: Active
Activity [18]: Active
Activity [20]: Active
Activity [21]: inactive
inhibition [22]: Active
SMILES: O=C(NCc1ccncc1)[C@H]1Cc2ccccc2CN1C(=O)c1cc(Cl)c(O)cc1O
Activity (HeLa): Active
Activity (SW480): Active
Activity (MDA-MB-453 [3]): 4.19%
Activity (NCI-H1299): Active
Activity (MDA-MB-453 [5]): Active
Activity (MDA-MB-453 [6]): Active
Activity (PC-3): Active
Activity (SK-OV-3): Active
Activity (MDA-MB-453 [9]): inactive
Activity (MDA-MB-453 [10]): 0.02%
Activity (MDA-MB-453 [12]): Dose-dependent effect
Activity (MDA-MB-453 [13]): Active
Activity (MDA-MB-231): Active
Activity (HCT-116): Active
Activity (MCF7): Active
Activity (MDA-MB-453 [16]): Active
Activity (MDA-MB-453 [17]): 15.88%
Activity (MDA-MB-453 [19]): Active
Activity (U-251): Active
